{
  "source": "patent US20230233569A1",
  "about": "(Revolution Medicines, Inc., priority 2020, published 2023)",
  "format_in_all_cases": "cell-based",
  "key": {"AsPC-1 (K-Ras G12D) [1]": {"test_system": "AsPC-1 (K-Ras G12D)", "assay": "Potency assay: pERK", "conditions": "Homo sapiens"}, "NCI-H358 (K-Ras G12C)": {"test_system": "NCI-H358 (K-Ras G12C)", "assay": "CellTiter-Glo cell viability assay", "conditions": "Homo sapiens, NCI-H358, 120 h", "summary_of_the_method": "(§1)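 Viability is scored by CellTiter-Glo luminescence on day 5 of compound treatment, relative to vehicle (DMSO) wells set as 100%, with a four-parameter logistic fit.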"}, "AsPC-1 (K-Ras G12D) [2]": {"test_system": "AsPC-1 (K-Ras G12D)", "assay": "CellTiter-Glo cell viability assay", "conditions": "Homo sapiens, ASPC1, 120 h", "summary_of_the_method": "as §1"}, "[3]": {"conditions": "read-out: H358 Cell Viability assay data IC50, K-Ras G12C, 5-day treatment"}, "[4]": {"conditions": "read-out: AsPC-1 Cell Viability assay data IC50, K-Ras G12D, 5-day treatment"}, "[5]": {"conditions": "ASPC1, AsPC-1 KRAS G12D, read-out: pERK EC50"}, "[6]": {"conditions": "K-Ras G12C, 5-day treatment, read-out: H358 Cell Viability assay data IC50"}, "[7]": {"conditions": "K-Ras G12D, 5-day treatment, read-out: AsPC-1 Cell Viability assay data IC50"}},
  "note": "Read-outs that look alike come from different tables or passages of the source.",
  "data": [
    {"smiles": "CCn1c(-c2cnccc2COC)c2c3cc(ccc31)-c1cc(O)cc(c1)C[C@H](NC(=O)[C@H](C(C)C)N(C)C(=O)CN(C)C(=O)[C@@H]1CN1)C(=O)N1CCC[C@H](N1)C(=O)OCC(C)(C)C2", "note": "[Example 8]", "values": [
      {"measurement": "EC50", "setting": "AsPC-1 (K-Ras G12D) [1]; ASPC1, read-out: pERK EC50", "result": "< 5", "unit": "µM"},
      {"measurement": "IC50", "setting": "NCI-H358 (K-Ras G12C); [3]", "result": "10 to 100", "unit": "nM"},
      {"measurement": "IC50", "setting": "AsPC-1 (K-Ras G12D) [2]; [4]", "result": "1000 to 10000", "unit": "nM"}
    ]},
    {"smiles": "CCn1c(-c2cccnc2[C@H](C)OC)c2c3cc(ccc31)-c1cc(O)cc(c1)C[C@H](NC(=O)[C@H](C(C)C)N(C)C(=O)[C@]1(C)CCCN1C(=O)[C@H]1CN1)C(=O)N1CCC[C@H](N1)C(=O)OCC(C)(C)C2", "note": "[Example 243]", "values": [
      {"measurement": "EC50", "setting": "AsPC-1 (K-Ras G12D) [1]; [5]", "result": "< 5", "unit": "µM"},
      {"measurement": "IC50", "setting": "NCI-H358 (K-Ras G12C); [6]", "result": "100 to 1000", "unit": "nM"},
      {"measurement": "IC50", "setting": "AsPC-1 (K-Ras G12D) [2]; [7]", "result": "100 to 1000", "unit": "nM"}
    ]},
    {"smiles": "CCn1c(-c2cnccc2COC)c2c3cc(ccc31)-c1cc(O)cc(c1)C[C@H](NC(=O)[C@H](C(C)C)N(C)C(=O)CN(C)C(=O)[C@@H]1N[C@@H]1C1CC1)C(=O)N1CCC[C@H](N1)C(=O)OCC(C)(C)C2", "note": "[Example 103]", "values": [
      {"measurement": "EC50", "setting": "AsPC-1 (K-Ras G12D) [1]; ASPC1, read-out: pERK EC50", "result": "< 5", "unit": "µM"},
      {"measurement": "IC50", "setting": "NCI-H358 (K-Ras G12C); [3]", "result": "100 to 1000", "unit": "nM"},
      {"measurement": "IC50", "setting": "AsPC-1 (K-Ras G12D) [2]; [4]", "result": "100 to 1000", "unit": "nM"}
    ]},
    {"smiles": "CCn1c(-c2cnccc2COC)c2c3cc(ccc31)-c1cc(O)cc(c1)C[C@H](NC(=O)[C@H](C(C)C)N(C)C(=O)CN(C)C(=O)[C@@H]1CN1Cc1ccccc1)C(=O)N1CCC[C@H](N1)C(=O)OCC(C)(C)C2", "note": "(stereo partly drawn) [Example 10]", "values": [
      {"measurement": "EC50", "setting": "AsPC-1 (K-Ras G12D) [1]; ASPC1, read-out: pERK EC50", "result": "< 5", "unit": "µM"},
      {"measurement": "IC50", "setting": "NCI-H358 (K-Ras G12C); [3]", "result": "10 to 100", "unit": "nM"},
      {"measurement": "IC50", "setting": "AsPC-1 (K-Ras G12D) [2]; [4]", "result": "1000 to 10000", "unit": "nM"}
    ]},
    {"smiles": "CCn1c(-c2cnccc2COC)c2c3cc(ccc31)-c1cc(O)cc(c1)C[C@H](NC(=O)[C@H](C(C)C)N(C)C(=O)CN(C)C(=O)[C@H]1N[C@@H]1c1ccccc1)C(=O)N1CCC[C@H](N1)C(=O)OCC(C)(C)C2", "note": "[Example 12]", "values": [
      {"measurement": "EC50", "setting": "AsPC-1 (K-Ras G12D) [1]; ASPC1, read-out: pERK EC50", "result": "< 5", "unit": "µM"},
      {"measurement": "IC50", "setting": "NCI-H358 (K-Ras G12C); [3]", "result": "100 to 1000", "unit": "nM"},
      {"measurement": "IC50", "setting": "AsPC-1 (K-Ras G12D) [2]; [4]", "result": "100 to 1000", "unit": "nM"}
    ]},
    {"smiles": "CCn1c(-c2cccnc2[C@H](C)OC)c2c3cc(ccc31)-c1cc(O)cc(c1)C[C@H](NC(=O)[C@H](C(C)C)N(C)C(=O)[C@@H]1CO[C@H](C)CN1C(=O)[C@H]1CN1)C(=O)N1CCC[C@H](N1)C(=O)OCC(C)(C)C2", "note": "[Example 248]", "values": [
      {"measurement": "EC50", "setting": "AsPC-1 (K-Ras G12D) [1]; [5]", "result": "< 5", "unit": "µM"},
      {"measurement": "IC50", "setting": "NCI-H358 (K-Ras G12C); [6]", "result": "10 to 100", "unit": "nM"},
      {"measurement": "IC50", "setting": "AsPC-1 (K-Ras G12D) [2]; [7]", "result": "100 to 1000", "unit": "nM"}
    ]},
    {"smiles": "CCn1c(-c2cccnc2[C@H](C)OC)c2c3cc(ccc31)-c1cc(O)cc(c1)C[C@H](NC(=O)[C@H](C(C)C)N(C)C(=O)[C@@]1(C)CCCN1C(=O)[C@H]1CN1)C(=O)N1CCC[C@H](N1)C(=O)OCC(C)(C)C2", "note": "[Example 239]", "values": [
      {"measurement": "EC50", "setting": "AsPC-1 (K-Ras G12D) [1]; [5]", "result": "< 5", "unit": "µM"},
      {"measurement": "IC50", "setting": "NCI-H358 (K-Ras G12C); [6]", "result": "10 to 100", "unit": "nM"},
      {"measurement": "IC50", "setting": "AsPC-1 (K-Ras G12D) [2]; [7]", "result": "100 to 1000", "unit": "nM"}
    ]},
    {"smiles": "CCC(C)N(C)C(=O)c1cncc(-c2c3c4cc(ccc4n2CC)-c2cc(O)cc(c2)C[C@H](NC(=O)[C@H](C(C)C)N(C)C(=O)CN(C)C(=O)[C@H]2CN2)C(=O)N2CCC[C@H](N2)C(=O)OCC(C)(C)C3)c1", "note": "(stereo partly drawn) [Example 144]", "values": [
      {"measurement": "EC50", "setting": "AsPC-1 (K-Ras G12D) [1]; ASPC1, read-out: pERK EC50", "result": "< 5", "unit": "µM"},
      {"measurement": "IC50", "setting": "NCI-H358 (K-Ras G12C); [3]", "result": "10 to 100", "unit": "nM"},
      {"measurement": "IC50", "setting": "AsPC-1 (K-Ras G12D) [2]; [4]", "result": "100 to 1000", "unit": "nM"}
    ]}
  ]
}
